The values below come from patent publication US8648116B2, “Derivatives of N-(arylamino) sulfonamides including polymorphs as inhibitors of MEK as well as compositions, methods of use and methods for preparing the same” (Ardea Biosciences, Inc., priority 2005, dated 2014).

Where two headings read alike, the source gives them in different places.

Data set [1] deals with gastric carcinoma Hs746t cells. Kind of data set: Cell proliferation assay (CellTiterGlo, 48 hours). The data set is classed as cell-based, human. The conditions noted are these: 48 hours treatment. As for the experimental part:
Human gastric carcinoma Hs746t cells were obtained from ATCC (Manassas, Va.). […] For cell proliferation experiments, cells were plated in white 96-well plates with clear bases at 3000 cells/100 μl/well.

A further data set deals with HT29 colon cells. Kind of data set: Anchorage-dependent growth inhibition (CellTiterGlo/ATP, 48 hr). The conditions noted are these: read-out: Mean GI50; HT29, 48 hr, ATP content, mean of at least three experiments. On the technique in general: ATP-based viability assays read luminescence as a measure of living cells.
For the next data set, the system named is rat hepatocytes. Kind of data set: Primary hepatocyte toxicity (AK release, ATP, 48 hr). The data set is classed as cell-based. The following applies: rat hepatocytes. As for the experimental part: Cryopreserved rat hepatocytes were obtained from CellzDirect (Austin, Tex.) and plated on collagen coated 96-well plates according to manufacturer's instructions. Drug was added 4 hr after plating (final DMSO concentration 0.5%).
After 48 hr, supernatant AK levels were determined using Toxilight, and cellular ATP levels were determined using CellTiterGlo. Full kill values were determined using 15 μM VRX-14686.

Data set [2] can be described thus: Plasma concentrations in mice (Example 94F). The class given is in vivo, nu/nu mice. The conditions noted are these: mouse efficacy model, typical range.
For data set [3], the system named is orthotopic Hep3B2.1-7 human hepatic carcinoma. Briefly: Growth response of orthotopic Hep3B tumors in nude mice. The class given is in vivo, BALB/c nu/nu mice. As for the experimental part: Female BALB/c nu/nu mice (University of Adelaide, Waite Campus, SA, Australia), aged 10-14 weeks, with a body weight range: of 19.1-29.94 g (mean 22.95 g) were used for the study. The mice were divided into 6 Study groups (4 treatment groups and 2 control groups) as follows: • Number of Mice per Group: 10 in Groups 1 to 5 inclusive • 15 in ‘Take-Rate’ Control Group (Group 6)
Hep3B human hepatic carcinoma cells (Passage 2 from working stock VP-Stock 353) were cultured in RPMI1640 cell culture medium, which was supplemented with 10% FBS and penicillin-streptomycin (501 U/mL final concentration). The cells were harvested by trypsinisation, washed twice in HBSS and counted. The cells were then resuspended in HBSS:Matrigel (1:1, v/v) and adjusted to a final volume containing 1×10^8 cells/mL. Prior to inoculation, the incision site was liberally swabbed with alcohol and an incision made through the abdominal wall to expose the liver. The needle was introduced through the surface of the liver where 10 μL of cells (1×10^6 cells) were discharged. The needle was held in this position for approximately 30 seconds to allow the Matrigel® to polymerize in order to avoid leakage of tumor cells into the abdominal cavity.
Treatment commenced 14 days post-inoculation. On Day 7 of the study (21 days post-inoculation), all mice from the ‘Take-Rate’ control group were culled and the livers visually assessed for the presence of tumors.
A stock solution was prepared weekly and stored at 4° C. Dosing solutions were prepared on each day of administration. […] The compound was administered at doses of 2, 10 and 50 mg/kg.
Liver and tumor wet weight were measured when each were excised post-mortem on the termination day of the study. At the termination of the study, livers were excised from all mice in each study group and weighed. The number of visible tumors, if present, was counted. These tumors were removed from the liver and weighed.
A One-Way Analysis of Variance (ANOVA) (All Pairwise Multiple Comparison Procedure and Multiple Comparison versus Control Group) was performed on liver weight and tumor weight data at the end of the study. […] The same statistical analyses were performed on the data for the tumor-bearing mice in the study.

A further data set relates to A431 epidermoid cells. Briefly: Anchorage-dependent growth inhibition (CellTiterGlo/ATP, 48 hr). The conditions noted are these: read-out: Mean GI50; A431, 48 hr, ATP content, mean of at least three experiments.
For data set [4], the system named is human A375 melanoma xenografts.

Procedure for A431 epidermoid cells: (§1) Cells were maintained at 37° C., 5% CO2, and 100% humidity. Colo205 cells were maintained in RPMI supplemented with 10% fetal bovine serum, glutamine (2 mM), penicillin (100 U/ml), and streptomycin (100 μg/ml). For growth inhibition experiments, cells were plated in white 384-well microplates at 1000 cells/20 dwell. After 24 hr, 5 μl of a 5× drug stock solution was added. All drugs were initially prepared as 200× stocks in DMSO, such that final DMSO concentration was 0.5%. Cells were incubated for 48 hr at 37° C. and ATP levels were determined using CellTiterGlo (Promega, Madison, Wis.). […] Non-linear curve-fitting was performed using GraphPad Prism 4 (GraphPad Software, San Diego, Calif.).
Procedure for HT29 colon cells: as §1

By GI50 is commonly meant the concentration at which growth is held to half of that of the control. The term half-life denotes the time in which the quantity being followed falls by half. Read a low half-life as fast loss. For `COc1cc(F)c(F)c(Nc2ccc(I)cc2F)c1NS(=O)(=O)C1(C[C@H](O)CO)CC1`, the “proliferation of Hs746t cells” value in data set [1] is given as “inhibits the proliferation”. The values for the GI50 in the data set with HT29 colon cells and in the data set with A431 epidermoid cells were 70 nM and 86 nM, respectively. The cytotoxicity entry in the data set on rat hepatocytes was “little cytotoxicity”. In data set [2], this compound gave a half-life of 2 to 3 h. For the same compound, in data set [3] (2, 10 and 50 mg/kg p.o. once daily), the “liver and tumor weight” value is “dose-dependent trend in the decrease”. In addition, the “average weight of the tumors vs Vehicle Control” value was “significantly different” in data set [3] (tumor-bearing mice, 10 mg/kg p.o. once daily) and “significantly different” in data set [3] (tumor-bearing mice, 50 mg/kg p.o. once daily). Also, the “average weight of the liver vs Vehicle Control” value in data set [3] (tumor-bearing mice, 50 mg/kg p.o. once daily, p<0.05) is reported as “significantly different”. In addition, the “Median TTE” value in data set [4] (Group 3, 50 mg/kg po qd×14) is given as 27.5 days; in data set [4] (Group 4, 25 mg/kg po bid×14) it was 59.9 days; in data set [4] (Group 5, 25 mg/kg po qd×14), 25.6 days; in data set [4] (Group 6, 12.5 mg/kg po bid×14), 27.5 days. Besides, the PR result in data set [4] (Group 3, 50 mg/kg po qd×14) was “A single animal”; in data set [4] (Group 4, 25 mg/kg po bid×14), 4/9; in data set [4] (Group 6, 12.5 mg/kg po bid×14), “a single PR response”. Also, the TGD in data set [4] (Group 3, 50 mg/kg po qd×14) is 21%; in data set [4] (Group 4, 25 mg/kg po bid×14, maximum possible) it was 163%; in data set [4] (Group 5, 25 mg/kg po qd×14, non-significant) it was 12%; in data set [4] (Group 6, 12.5 mg/kg po bid×14), 21%. Also, in data set [4] (Group 4, 25 mg/kg po bid×14), the CR was 5/9. Besides, in data set [4] (Group 4, 25 mg/kg po bid×14), the TFS is 4/9. For the same compound, in data set [4] (Group 5, 25 mg/kg po qd×14), the tumor regressions result is recorded as “no tumor regressions”.
